Broadly, the Ki is a dissociation constant, usually derived from enzyme kinetics or from competition with a known ligand.

The values below come from ChEMBL document CHEMBL4043213, “β-Arrestin biased dopamine D2 receptor partial agonists: Synthesis and pharmacological evaluation” (Bioorg Med Chem, 2017).

A value given as a limit tells only on which side of the number the result lay.

For assay [1], the target named is T1, D(2) dopamine receptor (Homo sapiens, UniProt P14416). The experiment in a line: biochemical. The assay is classed as cell-based.
Description: Displacement of [3H]spiperone from human D2SR expressed in CHO cell membranes
Assay [2] has as its target Sigma non-opioid intracellular receptor 1 (Homo sapiens, UniProt Q99720). The experiment in a line: Displacement of [3H]prazosin from human sigma1 receptor. For orientation: In a radioligand displacement assay an active substance lowers the binding of a labelled ligand.
For another assay, the target named is D(1B) dopamine receptor (Homo sapiens, UniProt P21918). The assay is described as follows: biochemical.
In assay [3] the target is T1, D(2) dopamine receptor. The experiment in a line: biochemical. The assay is classed as cell-based. The source holds these as a separate data set.
Description: Displacement of [3H]spiperone from human D2LR expressed in CHO cell membranes
For a further assay, the target named is D(3) dopamine receptor (Homo sapiens, UniProt P35462). The experiment in a line: biochemical.
For another assay, the target named is D(1A) dopamine receptor (Homo sapiens, UniProt P21728). The assay is described as follows: biochemical.
For assay [4], the target named is T2, 5-hydroxytryptamine receptor 1A (Homo sapiens, UniProt P08908).
T2 sequence (P08908 whole entry): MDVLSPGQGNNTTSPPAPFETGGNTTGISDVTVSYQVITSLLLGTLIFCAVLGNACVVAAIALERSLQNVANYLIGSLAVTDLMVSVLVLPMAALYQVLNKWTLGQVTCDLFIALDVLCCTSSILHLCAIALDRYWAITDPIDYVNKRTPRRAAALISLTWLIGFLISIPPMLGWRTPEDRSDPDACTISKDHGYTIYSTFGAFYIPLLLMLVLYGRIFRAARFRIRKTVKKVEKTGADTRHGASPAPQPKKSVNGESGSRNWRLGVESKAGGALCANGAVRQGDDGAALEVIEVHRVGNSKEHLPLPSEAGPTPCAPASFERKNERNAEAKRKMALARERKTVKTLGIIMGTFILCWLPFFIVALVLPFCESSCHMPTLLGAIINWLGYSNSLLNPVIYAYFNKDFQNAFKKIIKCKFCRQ
The assay is described as follows: Displacement of [3H]WAY100635 from human 5-HT1AR.

For the next assay, the target named is T3, D(4) dopamine receptor (Homo sapiens, UniProt P21917).
T3 sequence (P21917 whole entry): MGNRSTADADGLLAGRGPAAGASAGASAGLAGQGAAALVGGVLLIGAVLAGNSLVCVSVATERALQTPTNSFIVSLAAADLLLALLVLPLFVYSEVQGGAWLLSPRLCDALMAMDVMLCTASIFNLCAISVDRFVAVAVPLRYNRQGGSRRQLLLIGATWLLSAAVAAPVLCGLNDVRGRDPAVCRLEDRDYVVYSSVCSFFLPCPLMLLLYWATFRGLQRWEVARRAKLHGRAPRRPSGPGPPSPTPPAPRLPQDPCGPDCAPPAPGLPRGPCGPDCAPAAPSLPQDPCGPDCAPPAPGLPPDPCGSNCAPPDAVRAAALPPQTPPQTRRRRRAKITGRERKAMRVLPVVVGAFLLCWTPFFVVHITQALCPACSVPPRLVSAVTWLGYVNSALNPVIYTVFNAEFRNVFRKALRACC
The experiment in a line: biochemical. Format: cell-based.

For assay [5], the target named is 5-hydroxytryptamine receptor 2A (Homo sapiens, UniProt P28223). The assay is described as follows: biochemical.
Chain of 5-hydroxytryptamine receptor 2A (P28223 whole entry): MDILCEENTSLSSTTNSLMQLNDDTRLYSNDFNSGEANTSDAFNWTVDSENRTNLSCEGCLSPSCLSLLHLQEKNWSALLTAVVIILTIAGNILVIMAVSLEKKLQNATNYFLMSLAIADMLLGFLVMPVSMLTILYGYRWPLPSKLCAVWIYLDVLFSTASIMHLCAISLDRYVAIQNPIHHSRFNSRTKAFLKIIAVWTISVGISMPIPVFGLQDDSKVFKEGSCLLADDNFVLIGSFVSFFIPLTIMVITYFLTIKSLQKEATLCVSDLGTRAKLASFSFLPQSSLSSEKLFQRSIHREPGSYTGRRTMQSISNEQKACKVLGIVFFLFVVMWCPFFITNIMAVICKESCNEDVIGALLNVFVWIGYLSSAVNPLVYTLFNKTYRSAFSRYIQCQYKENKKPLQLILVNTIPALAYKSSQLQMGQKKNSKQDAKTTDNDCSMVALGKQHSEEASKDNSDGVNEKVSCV
Description: Displacement of [3H]ketanserin from human 5-HT2AR expressed in HEK293T cell membranes1

T1 sequence (P14416 whole entry): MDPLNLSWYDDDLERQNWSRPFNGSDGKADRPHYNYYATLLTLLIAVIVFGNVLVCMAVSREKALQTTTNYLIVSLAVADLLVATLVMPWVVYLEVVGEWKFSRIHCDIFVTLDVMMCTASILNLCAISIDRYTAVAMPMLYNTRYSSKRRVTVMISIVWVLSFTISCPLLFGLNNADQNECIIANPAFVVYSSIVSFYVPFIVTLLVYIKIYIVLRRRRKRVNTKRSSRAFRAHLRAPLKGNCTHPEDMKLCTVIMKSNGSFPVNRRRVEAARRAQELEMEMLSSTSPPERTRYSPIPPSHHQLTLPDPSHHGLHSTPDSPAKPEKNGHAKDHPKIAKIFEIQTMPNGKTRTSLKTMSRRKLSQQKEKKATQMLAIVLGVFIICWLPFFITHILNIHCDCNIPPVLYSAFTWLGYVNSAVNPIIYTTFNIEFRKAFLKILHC
Chain of D(1B) dopamine receptor (P21918 whole entry): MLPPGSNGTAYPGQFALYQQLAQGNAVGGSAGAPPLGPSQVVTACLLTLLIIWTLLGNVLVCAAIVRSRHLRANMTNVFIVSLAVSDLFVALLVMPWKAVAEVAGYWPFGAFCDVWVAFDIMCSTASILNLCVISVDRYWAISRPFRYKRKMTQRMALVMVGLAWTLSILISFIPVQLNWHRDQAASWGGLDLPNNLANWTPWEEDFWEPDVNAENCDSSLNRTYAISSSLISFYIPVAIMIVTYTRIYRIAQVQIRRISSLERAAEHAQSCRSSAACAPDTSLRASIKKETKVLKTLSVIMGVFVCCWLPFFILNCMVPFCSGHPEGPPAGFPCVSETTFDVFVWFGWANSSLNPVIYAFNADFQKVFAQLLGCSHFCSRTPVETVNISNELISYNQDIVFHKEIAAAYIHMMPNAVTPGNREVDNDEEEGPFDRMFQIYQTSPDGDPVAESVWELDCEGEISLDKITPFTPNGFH
Chain of D(3) dopamine receptor (P35462 whole entry): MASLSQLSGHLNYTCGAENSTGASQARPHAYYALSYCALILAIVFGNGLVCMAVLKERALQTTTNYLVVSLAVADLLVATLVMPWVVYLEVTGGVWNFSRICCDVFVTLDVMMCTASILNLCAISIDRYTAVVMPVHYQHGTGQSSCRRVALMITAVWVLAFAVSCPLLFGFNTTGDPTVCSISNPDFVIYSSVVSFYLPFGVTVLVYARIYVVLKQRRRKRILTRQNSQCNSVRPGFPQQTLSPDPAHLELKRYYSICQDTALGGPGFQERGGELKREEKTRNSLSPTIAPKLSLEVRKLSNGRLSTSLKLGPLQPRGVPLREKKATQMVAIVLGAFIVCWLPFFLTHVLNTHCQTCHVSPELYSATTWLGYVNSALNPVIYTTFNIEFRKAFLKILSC
Chain of D(1A) dopamine receptor (P21728 whole entry): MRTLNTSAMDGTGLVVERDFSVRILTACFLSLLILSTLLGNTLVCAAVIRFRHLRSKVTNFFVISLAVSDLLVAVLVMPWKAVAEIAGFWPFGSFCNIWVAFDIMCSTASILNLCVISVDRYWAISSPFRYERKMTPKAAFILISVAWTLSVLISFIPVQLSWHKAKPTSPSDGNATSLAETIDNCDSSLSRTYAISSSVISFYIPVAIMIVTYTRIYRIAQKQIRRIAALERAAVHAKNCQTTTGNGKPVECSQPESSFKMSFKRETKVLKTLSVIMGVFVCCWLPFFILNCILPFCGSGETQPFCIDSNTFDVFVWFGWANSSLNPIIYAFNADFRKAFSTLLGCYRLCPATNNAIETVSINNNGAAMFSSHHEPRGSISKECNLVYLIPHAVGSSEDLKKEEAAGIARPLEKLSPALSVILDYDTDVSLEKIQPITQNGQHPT
Chain of Sigma non-opioid intracellular receptor 1 (Q99720 whole entry): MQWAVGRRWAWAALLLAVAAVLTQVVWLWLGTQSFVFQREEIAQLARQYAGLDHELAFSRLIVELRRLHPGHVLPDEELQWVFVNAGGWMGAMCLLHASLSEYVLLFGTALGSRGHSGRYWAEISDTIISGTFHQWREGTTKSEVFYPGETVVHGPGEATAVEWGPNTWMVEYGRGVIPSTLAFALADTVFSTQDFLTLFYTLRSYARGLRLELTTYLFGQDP
Description for D(1A) dopamine receptor: Displacement of [3H]SCH23390 from human D1R expressed in HEK293T cell membranes
Description for D(1B) dopamine receptor: Displacement of [3H]SCH23390 from human D5R expressed in HEK293T cell membranes
Description for D(3) dopamine receptor: Displacement of [3H]spiperone from human D3R expressed in CHO cell membranes
Description for D(4) dopamine receptor: Displacement of [3H]spiperone from human D4R expressed in CHO cell membranes

Consider `Oc1ccc(N2CCNCC2)c2c1OCCO2`, for which the Ki is 6 µM on D(2) dopamine receptor [1]; 4.2 µM in assay [2]; > 20 µM on D(1B) dopamine receptor; 6.9 µM on D(2) dopamine receptor [3]; 0.11 µM at D(3) dopamine receptor; 6 µM at D(1A) dopamine receptor. Besides, the Ki in assay [4] was > 20 µM; on D(4) dopamine receptor, > 18 µM; in [5], 3.6 µM.
